From paper PMC4786250, “Effects of Intraosseous Tibial vs. Intravenous Vasopressin in a Hypovolemic Cardiac Arrest Model” (Western Journal of Emergency Medicine, 2016)

How the values were obtained:
[1] = Vasopressin concentration in blood samples (HPLC-MS/MS) after tibial IO or IV administration in a hypovolemic cardiac arrest model; type: in vivo, Yorkshire swine; settings: 40 units; for Cmax / Tmax / level at 1 min: Yorkshire, serum; for Cmax / Tmax: pig, mean ± standard deviation; for Cmax: during CPR, male swine 60-80 kg, 31% blood volume hemorrhage, ventricular fibrillation, femoral artery samples 0.5-4 min, HPLC-MS/MS; for Tmax / level at 1 min: male; for Tmax: SD; for level at 1 min: 60 seconds after injection, mean ± standard error, SEM
From the text: (§1) The study was a prospective, between-subjects, experimental design. The Institutional Animal Care and Use Committee (IACUC) approved the research protocol, and the animals received care in compliance with the Animal Welfare Act. Twenty-eight Yorkshire swine were randomly assigned by a computer generated random number program to one of four groups: IV + defibrillation (n=7), IO tibia + defibrillation (n=7), CPR + defibrillation (n=7), and a control group that received just CPR (n=7). Two additional swine were added in the each of the IV and IO groups for model development. These two swine meet the criteria for inclusion in the study, and no changes were necessary in the protocol. Therefore, the pigs were included in both groups to make a total of eight in both the tibial IO and IV groups. However, one pig in the IO group was ill and was deleted from the study making a total of seven in that group.
(§2) In addition, their blood volume is the same as humans: 70ml per kg of body weight.[18],[19] To avoid any variability in subjects, we purchased the swine from the same vendor and acquired pigs that were approximately the same size. Male swine were used to avoid any potential hormonal effects. Subjects weighing between 60 to 80kg were used as this range represents the average weight of an adult, human.[20] […] All subjects received no food after midnight the evening before the study but were allowed fluids as desired until the experiment
(§3) Each subject received pre-emptive analgesia with Telazol (4–8mg/kg). They were then sedated, anesthetized, intubated, and placed on mechanical ventilation. A standard Narkomed® anesthesia machine (Dräger, Telford, PA) was used to deliver isoflurane at a maintenance dose (0.5–2%) and ventilation at 8–10mL/kg at 10–14 breaths per minute. A peripheral IV was started on all subjects using an 18- or 20-gauge catheter in the auricular vein. […] Hemodynamics were evaluated continuously that included the following: electrocardiogram, arterial blood pressure via a left carotid artery catheter, mean arterial pressure, oxygen saturation, end-tidal carbon dioxide, and temperature. A forced-air warming blanket was used to sustain rectal temperature greater than 36 degrees Celsius. A Vigileo™ (Edwards Lifesciences, Irvine, CA) was used to obtain cardiac output and stroke volume measurements via the arterial line. The femoral artery was cannulated for the collection of blood samples and for the achievement of controlled hemorrhage.
(§4) For swine in the tibial IO group, we inserted an EZ-IO® device (Vidacare, San Antonio, TX) in the proximal, medial tibia. Placement was confirmed by aspiration of blood and easy irrigation with 10mL of 0.9% normal saline (NS). Patency was maintained by administering Lactated Ringer’s solution with a pressure bag at 300mmHg. Subjects were allowed to stabilize for 15 minutes; we then exsanguinated 31% of their blood volume from the femoral artery catheter into a canister. This represented a Class III hemorrhage. Hemorrhage was accomplished by allowing blood to drain by gravity over approximately 15 minutes. To ensure the amount exsanguinated was correct, the investigators used a scale that was accurate and precise within 0.5%.
(§5) In response to hypovolemic shock in accordance with Tactical Combat Casualty Care guidelines, we administered 500mL of 5% albumin to all subjects over 10 minutes.[22] Five minutes after the administration of albumin, the investigators placed the pigs in cardiac arrest, defined as a nonperfusing arrhythmia. […] The needles were attached to alligator clamps. The clamps were attached to three 9-volt batteries that were connected in a series to deliver an electrical current, thereby inducing nonperfusing ventricular fibrillation. We were able to establish ventricular fibrillation usually within 10 seconds. In some cases, we had to reposition the needles resulting in 100% being placed into ventricular fibrillation.
(§6) The pigs were allowed to remain in arrest for two minutes. […]

[2] = tested on: hypovolemic cardiac arrest model; test: Return of spontaneous circulation (ROSC) in a hypovolemic cardiac arrest model; type: in vivo, Yorkshire swine; settings: for time to ROSC: 40 units, mean ± standard deviation, SD; for Number achieving ROSC / Number not achieving ROSC: 40 units + CPR + defibrillation, up to 20 min
From the text: as §1, §2, §3, §4, §5, §6

NC(=O)CC[C@@H]1NC(=O)[C@H](Cc2ccccc2)NC(=O)[C@H](Cc2ccc(O)cc2)NC(=O)[C@@H](N)CSSC[C@@H](C(=O)N2CCC[C@H]2C(=O)N[C@@H](CCCN=C(N)N)C(=O)NCC(N)=O)NC(=O)[C@H](CC(N)=O)NC1=O [vasopressin]
Cmax ([1]; IV (auricular vein) push, n=8): 106 ng/mL
Cmax ([1]; tibial IO push, n=7): 58.7 ng/mL
Tmax ([1]; IV, n=8): 1.43 min
Tmax ([1]; tibial IO, n=7): 2.63 min
level at 1 min ([1]; IV, n=8): 76.8 ng/mL
level at 1 min ([1]; tibial IO, n=7): 23.6 ng/mL
Cmax concentration of the IO group compared to the IV group ([1]; tibial IO relative to IV): 55%
time to ROSC ([2]; IO group (line "IO vs. CPR + defibrillation")): 493 ± 226 s
Odds of ROSC ([2]; IO vs. CPR + defibrillation): 15
Odds of ROSC ([2]; IO vs. CPR only): 65
time to ROSC ([2]; IV group (line "IV vs. IO")): 559 ± 231 s
Odds of ROSC ([2]; IV vs. CPR + defibrillation): 17.5
Odds of ROSC ([2]; IV vs. CPR only): 75
Number achieving ROSC ([2]; IV, N=8): 7
Number not achieving ROSC ([2]; IV, N=8): 1
Number achieving ROSC ([2]; tibial IO, N=7): 6
Number not achieving ROSC ([2]; tibial IO, N=7): 1
